# According to patent US7772245B2, “Inhibitors of histone deacetylase” (Miikana Therapeutics, Inc., priority 2005, dated 2010):
# Legend:
# HDAC = assay: In vitro fluorescent histone deacetylase assay (Biomol HDAC fluorescent activity kit, HeLa cell nuclear extract); assay type: biochemical; details: 100 μM compound; HeLa cell nuclear extract as source of HDAC activity; 50 μM substrate, 10 min at room temperature
# Description: Histone deacetylase (HDAC) activity assays were performed using the HDAC fluorescent activity assay/drug discovery kit (Biomol Research Laboratories, Plymouth Meeting, Pa.) essentially according to the manufacturer's instructions. The included HeLa cell nuclear extract, which contains a mosaic of HDAC enzymes and other nuclear factors, was used as the source of HDAC activity. The final substrate concentration in the assay mixture was 50 μM. The reaction was allowed to proceed for 10 min at room temperature before stopping the reaction. Test compounds were prepared as 20 mM stock solutions in DMSO (Molecular Biology grade, Sigma-Aldrich Co., St. Louis, Mo.) and stored at −70° C. Serial dilutions of test compounds were prepared in assay buffer immediately prior to testing. DMSO was determined in a separate trial to have no significant effect on the activity of this assay at concentrations up to 5%; the final DMSO concentration in the wells was no more than 2% and therefore DMSO effects were safely neglected. Assays were performed in white polystyrene 96-well half-area assay plates (Corning, Corning, N.Y.) and measured on a Wallace 1420 fluorescent plate reader (Wallac Oy, Turku, Finland) with an excitation wavelength of 355 nm, an emission wavelength of 460 nm, and a 1 sec signal averaging time.
# HCT116 cells = assay: Whole cell cytotoxicity assay: Sulforhodamine B; assay type: cell-based; details: Homo sapiens, HCT-116; 100 μM compound; 48 hours incubation with drug; Sulforhodamine B staining; read-out: % Inhibition of HCT116 cell growth @ 100 μM
# Description: [The source words this procedure for another cell line and reports this cell line under the same test.] The following procedure can be found on the Developmental Therapeutics Program NCl/NIH web site at http://dtp.nci.nih.gov/brancehes/btb/ivclsp.html. • 1. Human tumor cell lines of HT29, A549 and MCF7 are grown in DMEM containing 10% fetal bovine serum and 2 mM L-glutamine. Cells are plated in a 96 well plate at a density of 5000 cells per well in 100 μL of growth medium and incubated at 37° C., 5% CO2, for 24 hours prior to the addition of experimental compounds. • 2. Experimental drugs are solubilized in DMSO for a final concentration of 20 mM immediately prior to use. Drugs are further diluted in growth media for a total of nine drug concentrations and a growth control. At the 24 hour time point, one plate of cells is fixed in situ with TCA as a measurement of the cell population at time zero, or the time of drug addition. • 3. The plates are further incubated with drug for an additional 48 hours. • 4. The cells are fixed in situ by gently aspirating off the culture media and then adding 50 μL of ice cold 10% TCA per well and incubated at 4° C. for 60 minutes. The plates are washed with tap water five times and allowed to air dry for 5 minute. • 5. 50 μL of a 0.4% (w/v) Sulforhodamine B solution in 1% (v/v) acetic acid is added per well and incubated for 30 minutes at room temperature. • 6. Following staining, plates are washed five times with 1% acetic acid to remove any unbound dye and then allowed to air dry for 5 minutes. • 7. Stain is solubilized with 100 μL of 10 mM Tris pH 10.5 per well and placed on an orbital rotator for 5 minutes. • 8. Absorbance is read at 570 nm.
Compound,% Inhibition of HDAC @ 100 μM (HDAC) [%],inhibition at 100 µM (HCT116 cells) [%]
"O=C(NO)c1cnc(N2CCc3[nH]c4ccc(-c5cccc(F)c5)cc4c3C2)nc1 [Example 44, N-hydroxy-2-{8-[3-fluorophenyl]-1,3,4,5-tetrahydro-2H-pyrido[4,3-b]indol-2-yl}pyrimidine-5-carboxamide]",99.9,97.6
"CC(=O)NCc1cccc(-c2ccc3[nH]c4c(c3c2)CN(c2ncc(C(=O)NO)cn2)CC4)c1 [Example 82, N-hydroxy-2-{8-[3-(N-acetamidomethyl)phenyl]-1,3,4,5-tetrahydro-2H-pyrido[4,3-b]indol-2-yl}pyrimidine-5-carboxamide]",99.9,97
"Cc1cc2c3c([nH]c2cc1Cl)CCN(c1ncc(C(=O)NO)cn1)C3 [Example 34, N-hydroxy-2-(7-chloro-8-methyl-1,3,4,5-tetrahydro-2H-pyrido[4,3-b]indol-2-yl)pyrimidine-5-carboxamide]",99.1,99.3
"Cc1ccc2c(c1)C1CN(c3ncc(C(=O)NO)cn3)CCC1N2 (centres unmarked) [Example 75, N-hydroxy-2-(8-methyl-1,3,4,4a,5,9b-hexahydro-2H-pyrido[4,3-b]indol-2-yl)pyrimidine-5-carboxamide]",99.9,98.4
"O=C(NO)c1cnc(N2CCc3[nH]c4cc(F)ccc4c3C2)nc1 [Example 35, N-hydroxy-2-(7-fluoro-1,3,4,5-tetrahydro-2H-pyrido[4,3-b]indol-2-yl)pyrimidine-5-carboxamide]",99.9,97.3
"O=C(NO)c1cnc(N2Cc3cccc4cccc(c34)C2)nc1 [Example 32, 2-(1H-benzo[de]isoquinolin-2(3H)-yl)-N-hydroxypyrimidine-5-carboxamide]",96.6,94.6
"O=C(NO)c1cnc(N2CCc3[nH]c4ccc(-c5ccc(F)cc5)cc4c3C2)nc1 [Example 45, N-hydroxy-2-{8-[4-fluorophenyl]-1,3,4,5-tetrahydro-2H-pyrido[4,3-b]indol-2-yl}pyrimidine-5-carboxamide]",99.9,98.9
"O=C(NO)c1cnc(N2CCc3[nH]c4ccc(-c5ccc(CN6CCOCC6)cc5)cc4c3C2)nc1 [Example 104, N-hydroxy-2-{8-[4-(morpholin-4-ylmethyl)phenyl]-1,3,4,5-tetrahydro-2H-pyrido[4,3-b]indol-2-yl}pyrimidine-5-carboxamide]",100,92
"O=C(NO)c1cnc(N2CCc3[nH]c4ccc(F)cc4c3CC2)nc1 [Example 115, N-hydroxy-2-(9-fluoro-1,4,5,6-tetrahydroazepino[4,5-b]indol-3(2H)-1-yl)pyrimidine-5-carboxamide]",,98.8
"O=C(NO)c1cnc(N2CCc3[nH]c4ccc(-c5cccc(CN6CCC(CO)CC6)c5)cc4c3C2)nc1 [Example 93, N-hydroxy-2-{8-[3-((4-hydroxymethylpiperidin-1-yl)methyl)phenyl]-1,3,4,5-tetrahydro-2H-pyrido[4,3-b]indol-2-yl}pyrimidine-5-carboxamide]",100,98
"O=C(NO)c1cnc(N2CCc3c(n(CCN4CCCCC4)c4ccccc34)C2)nc1 [Example 24, N-hydroxy-2-[9-(2-piperidin-1-ylethyl)-1,3,4,9-tetrahydro-2H-b-carbolin-2-yl]pyrimidine-5-carboxamide]",99,98.9
"CC(=O)Nc1cccc(-c2ccc3[nH]c4c(c3c2)CN(c2ncc(C(=O)NO)cn2)CC4)c1 [Example 87, N-hydroxy-2-{8-[3-(N-acetamido)phenyl]-1,3,4,5-tetrahydro-2H-pyrido[4,3-b]indol-2-yl}pyrimidine-5-carboxamide]",100,83.1
"CC(=O)Nc1ccc2[nH]c3c(c2c1)CN(c1ncc(C(=O)NO)cn1)CC3 [Example 77, N-hydroxy-2-(8-(N-acetamido)-1,3,4,5-tetrahydro-2H-pyrido[4,3-b]indol-2-yl)pyrimidine-5-carboxamide]",,98.1
"Cc1ccc2[nH]c3c(c2c1Cl)CN(c1ncc(C(=O)NO)cn1)CC3 [Example 54, N-hydroxy-2-(9-chloro-8-methyl-1,3,4,5-tetrahydro-2H-pyrido[4,3-b]indol-2-yl)pyrimidine-5-carboxamide]",99.5,98.9
"O=C(NO)c1cnc(N2CCc3[nH]c4ccccc4c3C2)nc1 [Example 12, N-hydroxy-2-(1,3,4,5-tetrahydro-2H-pyrido[4,3-b]indol-2-yl)pyrimidine-5-carboxamide]",99.9,98.7
"O=C(NO)c1cnc(N2CCc3[nH]c4ccc(Br)cc4c3C2)nc1 [Example 15, 2-(8-bromo-1,3,4,5-tetrahydro-2H-pyrido[4,3-b]indol-2-yl)-N-hydroxypyrimidine-5-carboxamide]",99.8,99
"O=C(NO)c1cnc(N2CCc3[nH]c4ccc(-c5cccnc5)cc4c3C2)nc1 [Example 47, N-hydroxy-2-{8-(pyridin-3-yl)-1,3,4,5-tetrahydro-2H-pyrido[4,3-b]indol-2-yl}pyrimidine-5-carboxamide]",,98.1
"O=C(NO)c1cnc(N2CCc3[nH]c4ccc(-c5ccc(CN6CCCC6)cc5)cc4c3C2)nc1 [Example 103, N-hydroxy-2-{8-[4-(pyrrolidin-1-ylmethyl)phenyl]-1,3,4,5-tetrahydro-2H-pyrido[4,3-b]indol-2-yl}pyrimidine-5-carboxamide]",,98.9
"CS(=O)(=O)Nc1cccc(-c2ccc3[nH]c4c(c3c2)CN(c2ncc(C(=O)NO)cn2)CC4)c1 [Example 88, N-hydroxy-2-{8-[3-(N-methylsulfonamido)phenyl]-1,3,4,5-tetrahydro-2H-pyrido[4,3-b]indol-2-yl}pyrimidine-5-carboxamide]",,98.4
"O=C(NO)c1ccc(N2CCc3c([nH]c4ccccc34)C2)nc1 [Example 4, N-hydroxy-6-(1,3,4,9-tetrahydro-2H-b-carbolin-2-yl)nicotinamide]",,98.5
"O=C(NO)c1cnc(N2CCc3[nH]c4ccc(F)cc4c3C2)nc1 [Example 111, N-hydroxy-2-(8-fluoro-1,3,4,5-tetrahydro-2H-pyrido[4,3-b]indol-2-yl)pyrimidine-5-carboxamide]",,97.7
"CN(C)Cc1cccc(-c2ccc3[nH]c4c(c3c2)CN(c2ncc(C(=O)NO)cn2)CC4)c1 [Example 92, N-hydroxy-2-{8-[3-(N,N-dimethylaminomethyl)phenyl]-1,3,4,5-tetrahydro-2H-pyrido[4,3-b]indol-2-yl}pyrimidine-5-carboxamide]",,98.9
"O=C(NO)c1cnc(N2CCc3[nH]c4ccccc4c3CC2)nc1 [Example 114, N-hydroxy-2-(1,4,5,6-tetrahydroazepino[4,5-b]indol-3(2H)-1-yl)pyrimidine-5-carboxamide]",,99.3
"O=C(NO)c1ccc(N2CCc3c([nH]c4ccccc34)C2)cc1 [Example 18, N-hydroxy-4-(1,3,4,9-tetrahydro-2H-b-carbolin-2-yl)benzamide]",,98.5
"O=C(NO)c1cnc(N2CCc3[nH]c4ccc(-c5cccc(C(=O)N6CCCC6)c5)cc4c3C2)nc1 [Example 42, N-hydroxy-2-{8-[3-(pyrrolidin-1-ylcarbonyl)phenyl]-1,3,4,5-tetrahydro-2H-pyrido[4,3-b]indol-2-yl}pyrimidine-5-carboxamide]",,88
"O=C(NO)c1cnc(N2CCc3[nH]c4cc(-c5cccc(CN6CCCC6)c5)ccc4c3C2)nc1 [Example 121, N-hydroxy-2-{7-[3-(pyrrolidin-1-ylmethyl)phenyl]-1,3,4,5-tetrahydro-2H-pyrido[4,3-b]indol-2-yl}pyrimidine-5-carboxamide]",,97.5
"O=C(NO)c1cnc(N2CCc3[nH]c4ccc(-c5ccc(CN6CCSCC6)cc5)cc4c3C2)nc1 [Example 105, N-hydroxy-2-{8-[4-(thiomorpholin-4-ylmethyl)phenyl]-1,3,4,5-tetrahydro-2H-pyrido[4,3-b]indol-2-yl}pyrimidine-5-carboxamide]",,97
